{
  "source": "ChEMBL document CHEMBL5360605",
  "about": "“Novel Lactams as CBL-B Inhibitors for Treating Cancer” (ACS Med Chem Lett, 2023)",
  "data": [
    {"molecular_target": "E3 ubiquitin-protein ligase CBL-B (Homo sapiens, UniProt Q13191)", "sequence (Q13191 whole entry)": "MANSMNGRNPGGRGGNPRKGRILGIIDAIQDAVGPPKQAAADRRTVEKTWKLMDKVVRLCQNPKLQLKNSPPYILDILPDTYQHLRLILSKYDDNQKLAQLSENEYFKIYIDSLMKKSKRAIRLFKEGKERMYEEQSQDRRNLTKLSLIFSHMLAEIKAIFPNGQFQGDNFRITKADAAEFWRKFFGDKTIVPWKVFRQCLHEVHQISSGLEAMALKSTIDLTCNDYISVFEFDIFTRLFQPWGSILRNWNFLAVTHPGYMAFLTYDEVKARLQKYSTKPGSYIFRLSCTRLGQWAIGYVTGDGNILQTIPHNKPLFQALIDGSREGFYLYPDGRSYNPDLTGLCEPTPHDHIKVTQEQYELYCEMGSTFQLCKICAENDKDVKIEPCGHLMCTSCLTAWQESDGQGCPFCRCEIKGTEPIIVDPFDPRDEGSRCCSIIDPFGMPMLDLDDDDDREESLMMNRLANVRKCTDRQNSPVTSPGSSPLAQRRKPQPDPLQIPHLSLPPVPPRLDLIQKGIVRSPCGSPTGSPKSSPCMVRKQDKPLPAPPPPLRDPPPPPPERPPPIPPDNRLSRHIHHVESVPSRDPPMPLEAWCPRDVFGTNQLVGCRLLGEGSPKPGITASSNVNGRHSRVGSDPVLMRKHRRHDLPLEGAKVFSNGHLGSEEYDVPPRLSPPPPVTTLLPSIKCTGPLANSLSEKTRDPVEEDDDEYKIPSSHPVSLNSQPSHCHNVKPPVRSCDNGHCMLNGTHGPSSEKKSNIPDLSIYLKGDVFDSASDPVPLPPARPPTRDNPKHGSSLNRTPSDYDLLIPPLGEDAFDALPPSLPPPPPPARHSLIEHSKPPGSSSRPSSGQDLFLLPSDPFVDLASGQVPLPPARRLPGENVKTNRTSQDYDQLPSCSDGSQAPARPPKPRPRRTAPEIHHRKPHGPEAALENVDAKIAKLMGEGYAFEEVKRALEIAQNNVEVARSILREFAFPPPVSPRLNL", "test": "Inhibition of biotin-tagged Cbl-b (unknown origin) assessed as reduction in LCK ubiquitination using His-LCK as substrate preincubated for 60 mins followed by substrate addition in presence of ATP, MgCl2 and measured after 90 mins by HTRF assay", "units": {"IC50": "nM"}, "values": [
      {"compound": "Cn1cnnc1C(c1cccc(N2Cc3c(cc(CNC4(C)CCC4)cc3C(F)(F)F)C2=O)c1)[C@H]1C[C@H](CC#N)C1", "note": "(stereo partly specified)", "IC50": 3},
      {"compound": "CCOc1cc([C@]2(c3nncn3C)C[C@@H](C)C2)cc(N2Cc3c(cc(CNC4(C)CCC4)cc3C(F)(F)F)C2=O)n1", "IC50": 4},
      {"compound": "C[C@H](NC1(C)CCC1)c1cc2c(c(C(F)(F)F)c1)CN(c1cccc([C@@H](c3nncn3C)C3COC3)c1)C2=O", "IC50": 4},
      {"compound": "CO[C@H]1C[C@](c2cccc(N3Cc4c(cc(CNC5CC6CC6C5)cc4C(F)(F)F)C3=O)c2)(c2nncn2C)C1", "note": "(stereo partly specified)", "IC50": 4},
      {"compound": "C[C@H](NC1(C)CCC1)c1cc(Cl)c2c(c1)C(=O)N(c1cccc([C@]3(c4nncn4C)C[C@H](F)C3)c1)C2", "IC50": 4},
      {"compound": "Cn1cnnc1[C@]1(c2cccc(N3Cc4c(cc(CNC5(C)CCC5)cc4C(F)(F)F)C3=O)c2)C[C@H](Cl)C1", "IC50": 4}
    ]}
  ]
}
